Results reported in PubChem BioAssay AID1259418 (Broad Institute, 2018).
Where “and” joins values, the source holds several entries; their conditions need not be identical. Equal values may be shown once. Inconclusive results are not listed. Calls of active or inactive are those of the source.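 Rule for the calls: active = fitted half-maximal concentration of signal decrease at or below twice the sample's top tested concentration; inconclusive = flat curve between -70 and -30 percent, or poor fit; inactive = flat within 30 percent, signal rise, or potency above limit.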

These molecules were tested against T. gondii ME49Luc in IFN-y HeLa, luciferase, 72 h (assay: inhibitors of Toxoplasma growth in IFN-γ-primed HeLa – cell-based, ME49Luc, luciferase, 72 h, dose response (AID 1259418)).

| Compound | AC50 |
| --- | --- |
| CS(=O)(=O)N1CCc2sc(C(=O)Nc3ccc(Cl)cc3)cc21 | 3.36 µM |
| Cc1ccccc1S(=O)(=O)N1CCCCN2[C@H](C1)[C@H](c1ccc(C#CCN(C)C)cc1)[C@@H]2CO | 18.6 µM |
| CCOC(=O)CSC1=Nc2ccccc2C2=NC(CCC(=O)NCc3ccc(OC)cc3)C(=O)N12 (configuration not stated) | 27.8 µM |
| Cc1ccc(-c2coc(-c3ccc(NS(=O)(=O)c4ccc(CC(C)C)cc4)cc3)n2)c(C)c1 | > 39 µM (inactive) |
| O=C(Cc1ccncc1)N1CCCCN2[C@H](CO)[C@@H](c3ccc(C#Cc4ccccc4F)cc3)[C@H]2C1 | 18.5 µM |
| Cc1ccc2c(c1C)-n1cccc1C1(CCN(C(=O)c3ccccc3F)CC1)N2 | > 39 µM (inactive) |
| CC(=O)NC1=NN(C(C)=O)C(C)(c2ccccc2)S1 (configuration not stated) | 11 µM and 6.03 µM |
| COc1ccccc1NC(=O)N1CCCCN2[C@H](CO)[C@@H](c3ccc(-c4cccc(C#N)c4)cc3)[C@@H]2C1 | 21.5 µM |
| COc1cc2c(cc1O)CC[C@@H]1[C@@H]2CC[C@]2(C)[C@@H](O)CC[C@@H]12 | 1.99 µM and 4.21 µM |
| CN(C[C@H]1N[C@@H](CO)[C@@H]1c1ccc(C2=CCCC2)cc1)C(=O)c1cccc(F)c1 | 15.2 µM and 3.49 µM |
| COc1cccc(NC(=O)N2CC(=O)N3[C@H](CO)[C@H](c4ccc(C#CCC5CCCC5)cc4)[C@H]3C2)c1 | 12.8 µM and 10.5 µM |
| Nc1ncnc2c1ncn2[C@@H]1O[C@H](C[C@@H](N)CC[C@H](N)C(=O)O)[C@@H](O)[C@H]1O | 0.907 µM |
| COc1cccc(NC(=O)N2CC(=O)N3[C@@H](CO)[C@H](c4ccc(C#CCC5CCCC5)cc4)[C@@H]3C2)c1 | 20 µM |
| O=C(Cc1ccncc1)N1CCCCN2[C@@H](CO)[C@@H](c3ccc(C#Cc4ccccc4F)cc3)[C@@H]2C1 | 20.9 µM and 12.3 µM |
| Cc1ccc(CSC2=Nc3ccccc3C3=NC(CC(=O)NCc4ccc5c(c4)OCO5)C(=O)N23)cc1 (configuration not stated) | > 39 µM (inactive) |
| CO[C@@H]1CCN(S(=O)(=O)N(C)C)C[C@@H]1Cc1cccc(C)c1 | 23.5 µM |
| Cc1cc(C(C)(C)CC(C)(C)C)ccc1OCCOCC[N+](C)(C)Cc1ccccc1 | 14.9 µM |
| O=C(NCCc1csc(-c2ccccc2)n1)[C@H]1CCCN1C(=O)c1ccccc1 | 36.5 µM |
| O=C(Nc1cccc(F)c1)N1CCCCN2[C@@H](CO)[C@@H](c3ccc(C#Cc4cccnc4)cc3)[C@@H]2C1 | > 42 µM (inactive) |
| COc1ccccc1C(=O)Nc1ccc(-c2nc(-c3ccc(C)cc3C)co2)cc1 | 9.34 µM and 18.2 µM |
| C[C@H](O[C@H]1OCCN(Cc2n[nH]c(=O)[nH]2)[C@H]1c1ccc(F)cc1)c1cc(C(F)(F)F)cc(C(F)(F)F)c1 | 15.4 µM |
| CCc1ccc(S(=O)(=O)N2CCC3(CC2)NCCN=C3NCc2ccc(C)cc2)cc1 | 8.88 µM |
| CCOc1ccc(N(Cc2nc(-c3ccc(C)cc3)oc2C)S(=O)(=O)c2cccs2)cc1 | 5.31 µM |

| Compound | AC50 |
| --- | --- |
| COc1ccccc1C#Cc1ccc([C@@H]2[C@@H](CO)N3CCCCN(C(=O)C4CCC4)C[C@H]23)cc1 | 28.8 µM and 14.6 µM |
| Cc1ccc(-c2noc(-c3ccc(N4CCC(N5CCCCC5)CC4)nc3)n2)cc1 | 24.8 µM |
| CCOc1ccc(-c2nc(CN3CCN(C(=O)Nc4ccccc4)CC3)c(C)o2)cc1 | 16.9 µM |
| Cc1ccccc1S(=O)(=O)N1C[C@@H]2N[C@H](C1)C2c1ccc(-c2cccc(C#N)c2)cc1 (some centres not stated) | 15.6 µM and 2.57 µM and 18.7 µM |
| CCOc1ccc(-c2nc(CN(c3ccccc3C)S(=O)(=O)c3cccs3)c(C)o2)cc1 | 18.8 µM |
| Cc1ccc(CN2CC3CN(Cc4cccc(F)c4)CC3C2)s1 (configuration not stated) | 9.23 µM |
| CCCCNc1ncnc2c1cnn2-c1ccc(C)cc1C | 28.1 µM |
| O=C(c1cccn2c(-c3ccc(F)cc3)nnc12)N1CCC(O)(c2ccc(Cl)cc2)CC1 | 25.4 µM |
| O=C(c1ccc2c(c1)OCO2)N1C[C@@H]2N[C@H](C1)C2c1ccc(/C=C/c2ccccc2)cc1 (some centres not stated) | 8.94 µM and 21.9 µM |
| CNC(=O)NCC1CCC2(CCN(Cc3ccccc3)CC2)CO1 (configuration not stated) | 26.3 µM |
| COc1ccc(S(=O)(=O)N2CCc3c([nH]c4ccccc34)C2c2cc(F)ccc2F)cc1 (configuration not stated) | 17.1 µM |
| COc1cccc(N(Cc2nc(-c3cccc(C)c3)oc2C)S(=O)(=O)c2ccc(C)cc2)c1 | 4.46 µM |
| O=C(CCC1N=C2c3ccccc3N=C(SCc3ccc(F)cc3)N2C1=O)NC1CCCCC1 (configuration not stated) | 16.2 µM |
| O=S(=O)(c1ccc(Cl)s1)N1CCC2(CC1)NCCN=C2NCc1cc(F)cc(F)c1 | 18 µM |
| CC(C)COC1CC2(CCN(C(=O)c3cccn3C)CC2)C1 | 14.6 µM |
| Fc1cccc(CSc2nc(NC3CCCCC3)c3ccccc3n2)c1 | > 39 µM (inactive) |
| CS(=O)(=O)N1CCC(C(=O)NCCc2csc(-c3cccs3)n2)CC1 | > 39 µM (inactive) |
| COc1ccccc1-c1nc(C)c(-c2ccc(SCc3ccccc3Cl)nn2)s1 | > 39 µM (inactive) |
| O=C(CCC1N=C2c3ccccc3N=C(SCc3ccc(F)cc3)N2C1=O)NCc1ccc(F)cc1 (configuration not stated) | > 39 µM (inactive) |
| OC[C@@H]1Nc2ccc(C#Cc3ccc(F)cc3)cc2[C@@H]2[C@H]1CCN2Cc1ccc2c(c1)OCO2 | 15.4 µM and 23.4 µM |
| Cc1ccc(CNC(=O)CC2Nc3c4ccccc4nc(=S)n3C2=O)cc1 (configuration not stated) | 31.5 µM |
| COc1cccc(-c2nc(C)c(-c3ccc(SCc4ccccc4)nn3)s2)c1 | 12.7 µM |
| Cc1ccccc1S(=O)(=O)N1CCC(C(=O)NCCc2csc(-c3ccccc3)n2)CC1 | 25.6 µM |

| Compound | AC50 |
| --- | --- |
| Cc1cccc(NC(=O)c2cc(-c3cnc(N4CCOCC4)nc3)cn2CC2CC2)c1 | 22.2 µM |
| COc1ccc(-c2nc3c(s2)CN(S(=O)(=O)c2ccc(C)c(C)c2)CC3)cc1 | 20.7 µM |
| CCc1ccc(S(=O)(=O)N2CCC3(CCCN(Cc4c(C)noc4C)C3)C2)cc1 (configuration not stated) | 22.9 µM |
| O=C(c1cccc(F)c1)N1CCCCN2[C@H](C1)[C@H](c1ccc(C#CC3(O)CCCC3)cc1)[C@@H]2CO | 9.01 µM |
| O=C(CCn1cnc2cc(-c3noc(-c4cc5cc(Cl)ccc5[nH]4)n3)ccc21)N1CCCC1 | 23.7 µM |
| Cc1cccc(C(=O)N2CCC3(CC2)Nc2cc(F)ccc2-n2cccc23)c1 | > 39 µM (inactive) |
| O=C(CC1N=C2c3ccccc3N=C(SCc3ccccc3Cl)N2C1=O)NCc1cccs1 (configuration not stated) | 21.5 µM |
| Cc1oc(-c2cccc(Cl)c2)nc1CN(c1ccccc1)S(=O)(=O)c1ccccc1 | 6.63 µM |
| CCCNC(=O)[C@@H]1[C@@H](CO)[C@@H]2Cn3c(ccc(/C=C/c4ccccc4)c3=O)[C@@H]2N1CC1CC1 | 18.5 µM |
| CC(C)C#Cc1ccc([C@@H]2[C@@H](CO)N3C(=O)CN(S(=O)(=O)c4ccccc4)C[C@H]23)cc1 | 19.2 µM |
| Cc1nc(OCC(=O)NCc2ccc3c(c2)OCO3)c2ccccc2n1 | 21.2 µM |
| CCc1ccccc1S(=O)(=O)N1CCC(C(=O)NCCc2csc(-c3ccccc3)n2)CC1 | 17.5 µM |
| O=C(Nc1c(C(=O)NCc2cccnc2)[nH]c2ccccc12)c1ccc(Cl)cc1 | 21.2 µM |
| Cc1cc(C(=O)Nc2ccc3c(c2)C(=O)N(C)[C@@H]2CC[C@@H](CC(=O)NCc4ccc(-c5ccccc5)cc4)O[C@@H]2CO3)no1 | 20.8 µM |
| COc1ccccc1C(=O)N1CCC2(CC1)Nc1ccc(Cl)cc1-n1cccc12 | 33.9 µM |
| Cc1ccc(CSC2=Nc3ccccc3C3=NC(CCC(=O)NCc4ccc5c(c4)OCO5)C(=O)N23)c(C)c1 (configuration not stated) | 27.2 µM |
| CCOc1ccc(-c2nc(CN3CCN(C(=O)Nc4cc(OC)ccc4OC)CC3)c(C)o2)cc1 | 38 µM |
| COc1ccc(-c2nc(NCCCN3CCC(N4CCCCC4)CC3)c3ccccc3n2)cc1 | 31.3 µM |
| COc1cccc(CN2CCC3(COCc4cnc(-c5ccccc5)nc43)C2)c1 (configuration not stated) | 17.4 µM |
| C(=C\c1ccc(C2[C@@H]3CN(Cc4ccc5c(c4)OCO5)C[C@H]2N3)cc1)/c1ccccc1 (some centres not stated) | 13.2 µM |
| O=C1CCc2cc(S(=O)(=O)NC(c3ccccc3)c3ccccc3)cc3c2N1CCC3 | 12.8 µM |
| N#CCSC1=Nc2ccccc2C2=NC(CC(=O)NCc3cccs3)C(=O)N12 (configuration not stated) | 19.6 µM |
| Cc1nc(CCNC(=O)C2CCN(C(=O)c3cccc(Cl)c3)CC2)cs1 | 31.5 µM |

| Compound | AC50 |
| --- | --- |
| Cc1ccccc1-c1ccc([C@H]2[C@H](CO)N3CCCCN(S(=O)(=O)Cc4ccccc4)C[C@@H]23)cc1 | 16.5 µM |
| COc1ccccc1C#Cc1ccc([C@H]2[C@H](CO)N3CCCCN(C(=O)C4CCC4)C[C@@H]23)cc1 | 13.5 µM and 5.77 µM |
| CC(C)(O)CC(=O)NCCn1ccc2ncnc(Nc3ccc(Oc4cccc(C(F)(F)F)c4)c(Cl)c3)c21 | 24.1 µM |
| O=C(CC1N=C2c3ccccc3N=C(SCc3ccccc3Cl)N2C1=O)NCCc1ccccc1 (configuration not stated) | 15.9 µM |
| COc1ccccc1-c1nc(Cn2nnc(-c3nc(-c4cccc(C(F)(F)F)c4)no3)c2C)c(C)o1 | > 20 µM (inactive) |
| Cc1ccc(-c2coc(-c3ccc(NS(=O)(=O)c4ccc(Br)cc4)cc3)n2)c(C)c1 | 27.9 µM |
| CCN1C(=O)CCc2cc(NC(=O)Cc3cccc(OC)c3)ccc21 | 23 µM |
| Cc1cccc(-c2nc(Cn3nnc(-c4nc(-c5ccncc5)no4)c3C)c(C)o2)c1 | 8.63 µM |
| CCc1ccc(S(=O)(=O)N2CCC3(CC2)NCCN=C3NC2CCCCCC2)cc1 | 5.05 µM |
| O=C(c1ccc(F)cc1)N1CC(=O)N2[C@@H](CO)[C@H](c3ccc(C#CCC4CCCC4)cc3)[C@@H]2C1 | 17.9 µM and 10.9 µM |
| CCOc1ccc(-c2nc(CN3CCN(C(=O)NC4CCCC4)CC3)c(C)o2)cc1 | 29.5 µM |
| O=C(NCCc1csc(-c2ccccc2)n1)C1CCN(S(=O)(=O)c2ccc(F)cc2)CC1 | 11.4 µM |
| COc1cc(OC)cc(C(=O)N2CCC3(CC2)Nc2cc(OC)ccc2-n2cccc23)c1 | 30.1 µM |
| COC(=O)c1ccccc1NC(=O)COc1nc(C)nc2ccccc12 | 20.9 µM |
| O=C(c1ccc(-n2nc(C(F)(F)F)c3c2CCCC3)cc1)N1CCC2(CC1)OCCO2 | 1.4 µM |
| O=C(Cc1ccccn1)N1CC(=O)N2[C@H](CO)[C@H](c3ccc(C#CCC4CCCC4)cc3)[C@H]2C1 | 19.4 µM and 8.78 µM |
| COc1cccc(N(Cc2nc(-c3cccc(C)c3)oc2C)S(=O)(=O)c2ccccc2)c1 | 8.5 µM |
| CCc1ccc(S(=O)(=O)N2CCC3(CC2)NCCN=C3NCc2cccc(F)c2)cc1 | 16.3 µM |
| c1ccc2c(Oc3nc(Nc4ccc(N5CCOCC5)cc4)c4ncn(C5CCCCC5)c4n3)cccc2c1 | 16.4 µM |
| O=C(NCCc1csc(-c2ccccc2)n1)C1CCN(C(=O)c2ccco2)CC1 | > 39 µM (inactive) |
| CCc1cnc(N2[C@H](CO)[C@@H](c3ccc(C#Cc4ccccc4F)cc3)[C@@H]2C#N)s1 | 21.3 µM |
| C(=C\c1ccc(C2[C@@H]3CN(Cc4nccs4)C[C@H]2N3)cc1)/c1ccccc1 (some centres not stated) | 17.1 µM |
| COc1ccc(NS(=O)(=O)c2cc3c4c(c2)CCC(=O)N4CCC3)cc1OC | 28.4 µM |
